The record followed here is ChEMBL document CHEMBL1201862, “PubChem BioAssay data set” (2004).

Common to all, as to test: NCI-60 cell line screen, 48 h
The subject of experiment [1] is MCF7.
Experiment [2] deals with HCT-116.
Experiment [3] relates to HOP-62.
For experiment [4], the system named is MDA-MB-435.
In experiment [5] the test system is TK-10.
In experiment [6] the test system is SF-295.
For experiment [7], the system named is CCRF-CEM.
Experiment [8] deals with KM12.
In experiment [9] the test system is NCI-H460.
Experiment [10] concerns ACHN.
Experiment [11] relates to NCI-H23.
Experiment [12] relates to EKVX.
The test system of experiment [13] is UO-31.
The subject of experiment [14] is NCI-H226.
For experiment [15], the system named is A498.
Experiment [16] concerns HCT-15.
The test system of experiment [17] is SK-OV-3.
Experiment [18] relates to RPMI-8226.
The subject of experiment [19] is SNB-75.
Experiment [20] has as its system SR.

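Test compounds were applied to cells in 96-well plates for 48 hours at 5 doses. GI50 is the concentration that inhibits growth by half.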 Active and inactive are the calls of the source. No stated cut-off is given here; in the data, active = GI50 up to about 1.1 µM and inactive = higher.

Regarding `CN(C)CCCn1c(Cn2nc3ccccc3n2)nc2cc(C(F)(F)F)ccc21`, the GI50 in [1] was 22 µM (inactive); in experiment [2] it was 36 µM (inactive); in experiment [3], 64.4 µM (inactive); in experiment [4], 16.5 µM (inactive); in experiment [5], 24 µM (inactive); in [6], 44.1 µM (inactive). Further, the GI50 is 13.2 µM (inactive) in experiment [7]; 22.8 µM (inactive) in experiment [8]; 26.4 µM (inactive) in [9]; 41.5 µM (inactive) in experiment [10]; 34 µM (inactive) in experiment [11]; 28.3 µM (inactive) in experiment [12]. The GI50 was 10.5 µM (inactive) in experiment [13]; 56 µM (inactive) in experiment [14]; 17.2 µM (inactive) in experiment [15]; 30.1 µM in experiment [16]; 16.9 µM (inactive) in [17].

Consider `CC1=C(C#N)S(=O)(=O)c2c(oc(C)c2C)N1`, for which the GI50 in experiment [1], in [2], in experiment [3], in experiment [4], in experiment [5] and in [6] was > 100 µM (inactive) each time. The GI50 in experiment [18], in experiment [8], in [19], in [9], in experiment [10] and in experiment [11] was > 100 µM (inactive) in each case. The GI50 is > 100 µM (inactive) in experiment [12]; > 100 µM (inactive) in [13]; > 100 µM (inactive) in experiment [14]; > 100 µM (inactive) in experiment [15]; greater than 100 µM in experiment [16]; > 100 µM (inactive) in experiment [17].

Turning to `N#C/C(=C\c1cc(Br)c(O)c(Br)c1)c1cccnc1`, the GI50 in experiment [1] is 33 µM (inactive); in experiment [2] it was > 100 µM (inactive); in [3], 32.8 µM (inactive); in experiment [5] it was 27.4 µM (inactive); in [6], 18.5 µM (inactive); in [7] it was 18.2 µM (inactive). Moreover, the GI50 is 21.6 µM (inactive) in experiment [18]; 27.2 µM (inactive) in experiment [8]; 75 µM (inactive) in experiment [19]; 32.5 µM (inactive) in [9]; 36.3 µM (inactive) in experiment [10]; 21 µM (inactive) in experiment [11]. Further, the GI50 in [12] was 19.1 µM (inactive); in experiment [13], 22.1 µM (inactive); in experiment [14], 21.5 µM (inactive); in [16] it was 17.7 µM; in [20], 31.3 µM (inactive); in experiment [17], 42.2 µM (inactive).

`CCCCCCCCCCOc1ccc(/N=N/c2nnc(-c3ccc(OCCCCC)cc3)s2)cc1`: the GI50 in experiment [1] is 39.2 µM (inactive); in experiment [2] it was > 100 µM (inactive); in experiment [3] it was > 100 µM (inactive); in experiment [4], 34.5 µM (inactive); in experiment [5] it was > 100 µM (inactive); in experiment [6], 62.5 µM (inactive). For the same molecule, the GI50 in [7] was > 100 µM (inactive); in experiment [18], > 100 µM (inactive); in experiment [8], 62.4 µM (inactive); in experiment [9], > 100 µM (inactive); in experiment [10] it was 93.5 µM (inactive); in experiment [11], > 100 µM (inactive). Further, the GI50 in experiment [12] was > 100 µM (inactive); in [15], 49.4 µM (inactive); in experiment [16], greater than 100 µM; in experiment [17] it was > 100 µM (inactive).

As for `O=c1ccn2n1Cc1ccccc1C2`, the GI50 in experiment [2], in experiment [3], in experiment [4], in experiment [5], in experiment [6] and in experiment [7] was > 100 µM (inactive) throughout. Also, the GI50 in experiment [18], in experiment [8], in [9], in experiment [10], in experiment [11] and in experiment [12] was > 100 µM (inactive) in each case. Besides, the GI50 in experiment [13] is 79.8 µM (inactive); in experiment [14] it was > 100 µM (inactive); in [15], > 100 µM (inactive); in experiment [16], greater than 100 µM; in [20], > 100 µM (inactive); in [17], > 100 µM (inactive).

Turning to `CCN(CC)C(=O)COc1cc2c(O)c3c(O)c(C)c4c(c13)C(=O)C(C)(OC=CC(OC)C(C)C(OC(C)=O)C(C)C(O)C(C)C(O)C(C)C=CC=C(C)C(=O)N2)O4` (stereo unspecified), the GI50 in experiment [1], in experiment [2], in [3], in experiment [5], in experiment [6] and in experiment [7] was > 100 µM (inactive) each time. Moreover, the GI50 in experiment [18] is 37.4 µM (inactive); in experiment [8], > 100 µM (inactive); in experiment [19] it was > 100 µM (inactive); in experiment [9] it was > 100 µM (inactive); in [10], > 100 µM (inactive); in [11], > 100 µM (inactive). The GI50 in experiment [12] was > 100 µM (inactive); in [13] it was > 100 µM (inactive); in experiment [14], > 100 µM (inactive); in [15], > 100 µM (inactive); in experiment [16], greater than 100 µM; in experiment [20] it was > 100 µM (inactive). The GI50 in experiment [17] was > 100 µM (inactive).

On to `CCOc1cc2c(cc1O)C(N)C[C@@H]1[C@@H]2CC[C@]2(C)[C@@H](O)CC[C@@H]12` (stereo partly specified), for which the GI50 was 40.8 µM (inactive) in [1]; 46.7 µM (inactive) in [3]; 83 µM (inactive) in experiment [5]; 32.7 µM (inactive) in experiment [6]; 22.6 µM (inactive) in experiment [7]; 43.7 µM (inactive) in [8]. Also, the GI50 in [19] is 15 µM (inactive); in experiment [9], 37.6 µM (inactive); in experiment [10] it was 34.8 µM (inactive); in [11], 49.5 µM (inactive); in experiment [12], 80.9 µM (inactive); in experiment [13], 36.9 µM (inactive). Also, the GI50 is 92.7 µM (inactive) in experiment [14], 34.8 µM (inactive) in experiment [15], 45.7 µM in [16] and 15.2 µM (inactive) in [20].

As for `C[C@@H]1[C@@H](c2ccccc2)O[B-](c2ccccc2)(c2ccccc2)N1C`, the GI50 is 32.9 µM (inactive) in experiment [2]; > 100 µM (inactive) in experiment [3]; 35.4 µM (inactive) in experiment [4]; 32.8 µM (inactive) in experiment [5]; 62.4 µM (inactive) in experiment [6]; 12.9 µM (inactive) in [7]. For the same molecule, the GI50 in experiment [18] is 32 µM (inactive); in experiment [8], 52.1 µM (inactive); in experiment [9] it was 45.2 µM (inactive); in experiment [10], 33.1 µM (inactive); in experiment [11], 35.6 µM (inactive); in experiment [12] it was 97.7 µM (inactive). Further, the GI50 in experiment [13] was 20.9 µM (inactive); in [14] it was 36.5 µM (inactive); in experiment [15], 34.8 µM (inactive); in [16] it was 40.2 µM; in experiment [20] it was 21.7 µM (inactive); in [17], 55.3 µM (inactive).

Take `Cc1ccc2c(=O)c(-c3nnc(N)s3)c[nH]c2n1`: the GI50 in experiment [1] is > 100 µM (inactive); in experiment [2], > 100 µM (inactive); in experiment [3], 18.6 µM (inactive); in experiment [4], > 100 µM (inactive); in [5] it was > 100 µM (inactive); in [6], > 100 µM (inactive). The GI50 in experiment [7], in [18], in experiment [8], in experiment [9], in experiment [10] and in experiment [11] was > 100 µM (inactive) each time. Besides, the GI50 is > 100 µM (inactive) in experiment [12]; > 100 µM (inactive) in experiment [13]; 71.4 µM (inactive) in experiment [14]; > 100 µM (inactive) in experiment [15]; greater than 100 µM in experiment [16].

For `Cn1ccc(C(=O)N2CCSC2=S)c(OCc2ccccc2)c1=O`, the GI50 is > 100 µM (inactive) in experiment [2]; > 100 µM (inactive) in experiment [4]; > 100 µM (inactive) in [5]; 48.8 µM (inactive) in experiment [7]; > 100 µM (inactive) in [18]; > 100 µM (inactive) in experiment [8]. Besides, the GI50 in [19] was 70.1 µM (inactive); in [9] it was > 100 µM (inactive); in experiment [10], > 100 µM (inactive); in [11] it was > 100 µM (inactive); in experiment [13], 67.8 µM (inactive); in experiment [14] it was > 100 µM (inactive). Besides, the GI50 was > 100 µM (inactive) in experiment [15], greater than 100 µM in [16] and 26.7 µM (inactive) in experiment [20].

For `CNC(=O)c1ccccc1-[s+]1c2ccccc2c(=O)n1C` (stereo unspecified), the GI50 in experiment [1], in experiment [2], in [3], in experiment [4], in experiment [5] and in experiment [6] was > 100 µM (inactive) throughout. The GI50 in experiment [7], in [18], in experiment [8], in experiment [10], in experiment [11] and in experiment [12] was > 100 µM (inactive) each time. In addition, the GI50 in experiment [13] was > 100 µM (inactive); in experiment [14], > 100 µM (inactive); in experiment [15], > 100 µM (inactive); in [16], greater than 100 µM.

Regarding `Oc1ccc[n+](Cc2ccccc2)c1`, the GI50 in experiment [1], in experiment [2], in [3], in [4], in experiment [5] and in experiment [6] was > 100 µM (inactive) throughout. Also, the GI50 in [7], in [18], in experiment [8], in experiment [19], in [9] and in [10] was > 100 µM (inactive) each time. Moreover, the GI50 was > 100 µM (inactive) in experiment [11]; > 100 µM (inactive) in experiment [13]; > 100 µM (inactive) in experiment [14]; > 100 µM (inactive) in [15]; greater than 100 µM in experiment [16]; > 100 µM (inactive) in [17].
